For assay [1], the target named is AktK (Homo sapiens, UniProt P31749). In words: Luciferase-coupled chemiluminescence kinase assay (ATP consumption). The format is biochemical. To be noted: read-out: AKT-1 IC50. Put shortly: (§1)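 Enzyme at 2.5-5 nM was preincubated 30 min at room temperature with compound in Tris pH 7.5, MgCl2, TX-100, DTT, then reacted with ATP for 3 h at ambient temperature. Remaining ATP was quantified by luciferase-luciferin chemiluminescence, with consumption kept at 25-60%; […].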

Assay [2] deals with p70S6K (Homo sapiens, UniProt P23443). The description is as above. The format is biochemical. In a few lines: as §1

Read-outs that look alike come from different tables or passages of the source.

Sequence of AktK (P31749 whole entry): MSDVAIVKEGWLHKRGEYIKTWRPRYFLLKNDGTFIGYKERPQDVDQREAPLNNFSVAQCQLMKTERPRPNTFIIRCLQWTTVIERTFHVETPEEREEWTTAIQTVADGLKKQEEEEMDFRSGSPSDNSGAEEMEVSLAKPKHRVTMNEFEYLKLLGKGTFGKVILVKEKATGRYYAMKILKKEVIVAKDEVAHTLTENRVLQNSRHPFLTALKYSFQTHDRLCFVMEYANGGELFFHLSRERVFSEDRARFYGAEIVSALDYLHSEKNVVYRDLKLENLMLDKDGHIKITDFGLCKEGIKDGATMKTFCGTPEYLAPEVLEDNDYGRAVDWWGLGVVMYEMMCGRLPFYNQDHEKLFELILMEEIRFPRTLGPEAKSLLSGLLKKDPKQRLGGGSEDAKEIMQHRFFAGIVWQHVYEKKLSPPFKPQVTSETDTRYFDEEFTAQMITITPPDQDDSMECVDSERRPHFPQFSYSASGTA
Sequence of p70S6K (P23443 whole entry): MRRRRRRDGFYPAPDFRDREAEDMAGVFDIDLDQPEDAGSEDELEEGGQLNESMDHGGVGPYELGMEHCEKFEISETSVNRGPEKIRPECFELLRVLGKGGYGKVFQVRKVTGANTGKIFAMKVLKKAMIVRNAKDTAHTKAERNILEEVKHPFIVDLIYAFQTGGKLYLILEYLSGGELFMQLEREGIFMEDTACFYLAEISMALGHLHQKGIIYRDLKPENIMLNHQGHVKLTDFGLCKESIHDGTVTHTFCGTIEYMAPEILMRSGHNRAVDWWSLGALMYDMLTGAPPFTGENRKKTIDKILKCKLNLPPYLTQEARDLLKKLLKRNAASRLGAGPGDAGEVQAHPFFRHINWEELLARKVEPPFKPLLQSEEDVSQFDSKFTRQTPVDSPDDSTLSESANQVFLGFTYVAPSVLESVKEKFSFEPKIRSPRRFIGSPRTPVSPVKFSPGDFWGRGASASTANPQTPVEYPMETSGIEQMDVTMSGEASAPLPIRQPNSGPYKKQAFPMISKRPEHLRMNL

For orientation: IC50 means the point on the concentration scale where inhibition reaches its midpoint. With `Clc1cc(NCCN2CCCC2)cc(N2CCN(c3ncnc4[nH]nc(Br)c34)CC2)c1` [Entry 267, 3-[4-(3-bromo-1H-pyrazolo[3,4-d]pyrimidin-4-yl)piperazin-1-yl]-5-chloro-N-(2-pyrrolidin-1-ylethyl)aniline], the IC50 in assay [1] (Table 1, class symbols per key) was < 100 nM; in assay [2] (Table 1, class symbols per key), < 100 nM.

On to `Cc1c(NCCN2CCCC2)cc(CO)cc1N1CCN(c2ncnc3[nH]nc(Br)c23)CC1` [Entry 268, {3-[4-(3-bromo-1H-pyrazolo[3,4-d]pyrimidin-4-yl)piperazin-1-yl]-4-methyl-5-[(2-pyrrolidin-1-ylethyl)amino]phenyl}methanol], for which the IC50 in assay [1] (Table 1, class symbols per key) is 100 to 1000 nM; in assay [2] (Table 1, class symbols per key), < 100 nM.

For the compound `Cc1c(NCCN2CCCC2)cc(OCC2CC2(F)F)cc1N1CCN(c2ncnc3[nH]nc(Br)c23)CC1` (stereo not shown) [Entry 270, 3-[4-(3-bromo-1H-pyrazolo[3,4-d]pyrimidin-4-yl)piperazin-1-yl]-5-{[(2,2-difluorocyclopro-pyl)methyl]oxy}-2-methyl-N-(2-pyrrolidin-1-ylethyl)aniline], the IC50 in assay [1] (Table 1, class symbols per key) was < 100 nM; in assay [2] (Table 1, class symbols per key), < 100 nM.

Consider `Cc1c(NCCN2CCCC2)cc(Br)cc1N1CCN(c2ncnc3[nH]nc(Br)c23)CC1` [Entry 271, 5-bromo-3-[4-(3-bromo-1H-pyrazolo[3,4-d]pyrimidin-4-yl)piperazin-1-yl]-2-methyl-N-(2-pyrrolidin-1-ylethyl)aniline], for which the IC50 in assay [1] (Table 1, class symbols per key) was < 100 nM; in assay [2] (Table 1, class symbols per key), < 100 nM.

As for `CCOCc1cc(NCCN2CCCC2)c(C)c(N2CCN(c3ncnc4[nH]nc(Br)c34)CC2)c1` [Entry 272, 3-[4-(3-bromo-1H-pyrazolo[3,4-d]pyrimidin-4-yl)piperazin-1-yl]-5-[(ethyloxy)methyl]-2-methyl-N-(2-pyrrolidin-1-ylethyl)aniline], the IC50 was < 100 nM in assay [1] (Table 1, class symbols per key) and < 100 nM in assay [2] (Table 1, class symbols per key).

On to `Cn1c(CCCO)nc2c(N3CCN(c4ncnc5[nH]nc(Br)c45)CC3)cc(C(F)(F)F)cc21` [Entry 273, 3-[4-[4-(3-bromo-1H-pyrazolo[3,4-d]pyrimidin-4-yl)piperazin-1-yl]-1-methyl-6-(trifluoromethyl)-1H-benzimidazol-2-yl]propan-1-ol], for which the IC50 was 100 to 1000 nM in assay [1] (Table 1, class symbols per key) and < 100 nM in assay [2] (Table 1, class symbols per key).

For `Cc1c(NCCN2CCCC2)cc(C(=O)CCC(F)(F)F)cc1N1CCN(c2ncnc3[nH]nc(Br)c23)CC1` [Entry 274, 1-{3-[4-(3-bromo-1H-pyrazolo[3,4-d]pyrimidin-4-yl)piperazin-1-yl]-4-methyl-5-[(2-pyrrolidin-1-ylethyl)amino]phenyl}-4,4,4-trifluorobutan-1-one], the IC50 in assay [1] (Table 1, class symbols per key) was < 100 nM; in assay [2] (Table 1, class symbols per key), < 100 nM.

As for `Cc1c(NCCN2CCCC2)cc(C(=O)C2CC2)cc1N1CCN(c2ncnc3[nH]nc(Br)c23)CC1` [Entry 275, {3-[4-(3-bromo-1H-pyrazolo[3,4-d]pyrimidin-4-yl)piperazin-1-yl]-4-methyl-5-[(2-pyrrolidin-1-ylethyl)amino]phenyl}(cyclopropyl)methanone], the IC50 was < 100 nM in assay [1] (Table 1, class symbols per key) and < 100 nM in assay [2] (Table 1, class symbols per key).

On to `Cc1ccc(-c2ccccc2OCCCN(C)C)cc1N1CCN(c2ncnc3[nH]nc(Br)c23)CC1` [Entry 276, 3-({3′-[4-(3-bromo-1H-pyrazolo[3,4-d]pyrimidin-4-yl)piperazin-1-yl]-4′-methylbiphenyl-2-yl}oxy)-N,N-dimethylpropan-1-amine], for which the IC50 in assay [1] (Table 1, class symbols per key) is < 100 nM; in assay [2] (Table 1, class symbols per key) it was < 100 nM.

`CCCC(F)(F)c1cc(NCCN2CCCC2)c(C)c(N2CCN(c3ncnc4[nH]nc(Br)c34)CC2)c1` [Entry 277, 3-[4-(3-bromo-1H-pyrazolo[3,4-d]pyrimidin-4-yl)piperazin-1-yl]-5-(1,1-difluorobutyl)-2-methyl-N-(2-pyrrolidin-1-ylethyl)aniline]: the IC50 in assay [1] (Table 1, class symbols per key) is < 100 nM; in assay [2] (Table 1, class symbols per key) it was < 100 nM.

`Cc1ccc(-c2ccccc2OCCCN2CCOCC2)cc1N1CCN(c2ncnc3[nH]nc(Br)c23)CC1` [Entry 278, 3-bromo-4-(4-{4-methyl-2′-[(3-morpholin-4-ylpropyl)oxy]biphenyl-3-yl}piperazin-1-yl)-1H-pyrazolo[3,4-d]pyrimidine]: the IC50 in assay [1] (Table 1, class symbols per key) is < 100 nM; in assay [2] (Table 1, class symbols per key) it was < 100 nM.

As for `Cc1ccc(-c2ccccc2OCCN2CCOCC2)cc1N1CCN(c2ncnc3[nH]nc(Br)c23)CC1` [Entry 279, 3-bromo-4-(4-{4-methyl-2′-[(2-morpholin-4-ylethyl)oxy]biphenyl-3-yl}piperazin-1-yl)-1H-pyrazolo[3,4-d]pyrimidine], the IC50 in assay [1] (Table 1, class symbols per key) is < 100 nM; in assay [2] (Table 1, class symbols per key), < 100 nM.

As to `Cc1c(NCCN2CCCC2)cc(COCC(F)(F)F)cc1N1CCN(c2ncnc3[nH]nc(Br)c23)CC1` [Entry 280, 3-[4-(3-bromo-1H-pyrazolo[3,4-d]pyrimidin-4-yl)piperazin-1-yl]-2-methyl-N-(2-pyrrolidin-1-yl-ethyl)-5-{[(2,2,2-trifluoroethyl)oxy]methyl}aniline], the IC50 in assay [1] (Table 1, class symbols per key) was < 100 nM; in assay [2] (Table 1, class symbols per key), < 100 nM.

For the compound `Cc1ccc(-c2ccccc2OCCN2C(=O)CCC2=O)cc1N1CCN(c2ncnc3[nH]nc(Br)c23)CC1` [Entry 281, 1-[2-({3′-[4-(3-bromo-1H-pyrazolo[3,4-d]pyrimidin-4-yl)piperazin-1-yl]-4′-methylbiphenyl-2-yl}oxy)ethyl]pyrrolidine-2,5-dione], the IC50 is < 100 nM in assay [1] (Table 1, class symbols per key) and < 100 nM in assay [2] (Table 1, class symbols per key).

For `Cc1ccc(-c2cccc(F)c2OCCN2CCCC2)cc1N1CCN(c2ncnc3[nH]nc(Br)c23)CC1` [Entry 282, 3-bromo-4-(4-{3′-fluoro-4-methyl-2′-[(2-pyrrolidin-1-ylethyl)oxy]biphenyl-3-yl}piperazin-1-yl)-1H-pyrazolo[3,4-d]pyrimidine], the IC50 was < 100 nM in assay [1] (Table 1, class symbols per key) and < 100 nM in assay [2] (Table 1, class symbols per key).

With `CCCC(=O)c1cc(NCCN2CCCC2)cc(N2CCN(c3ncnc4[nH]nc(Br)c34)CC2)c1` [Entry 283, 1-{3-[4-(3-bromo-1H-pyrazolo[3,4-d]pyrimidin-4-yl)piperazin-1-yl]-5-[(2-pyrrolidin-1-ylethyl)amino]phenyl}butan-1-one], the IC50 in assay [1] (Table 1, class symbols per key) is < 100 nM; in assay [2] (Table 1, class symbols per key), < 100 nM.

With `Cc1c(NCCN2CCCC2)cc(OCCC(F)(F)F)cc1N1CCN(c2ncnc3[nH]nc(Br)c23)CC1` [Entry 284, 3-[4-(3-bromo-1H-pyrazolo[3,4-d]pyrimidin-4-yl)piperazin-1-yl]-2-methyl-N-(2-pyrrolidin-1-ylethyl)-5-[(3,3,3-trifluoropropyl)oxy]aniline], the IC50 is < 100 nM in assay [1] (Table 1, class symbols per key) and < 100 nM in assay [2] (Table 1, class symbols per key).

For the compound `Cc1c(NCCN2CCCC2)cc(OCC(F)(F)F)cc1N1CCN(c2ncnc3[nH]nc(Br)c23)CC1` [Entry 285, 3-[4-(3-bromo-1H-pyrazolo[3,4-d]pyrimidin-4-yl)piperazin-1-yl]-2-methyl-N-(2-pyrrolidin-1-ylethyl)-5-[(2,2,2-trifluoroethyl)oxy]aniline], the IC50 in assay [1] (Table 1, class symbols per key) was < 100 nM; in assay [2] (Table 1, class symbols per key), < 100 nM.

On to `CCCC(O)c1cc(NCCN2CCCC2)c(C)c(N2CCN(c3ncnc4[nH]nc(Br)c34)CC2)c1` (stereo not shown) [Entry 286, 1-{3-[4-(3-bromo-1H-pyrazolo[3,4-d]pyrimidin-4-yl)piperazin-1-yl]-4-methyl-5-[(2-pyrrolidin-1-ylethyl)amino]phenyl}butan-1-ol], for which the IC50 in assay [1] (Table 1, class symbols per key) is < 100 nM; in assay [2] (Table 1, class symbols per key) it was < 100 nM.

On to `Clc1ccc(-c2ccccc2OCCN2CCCC2)cc1N1CCN(c2ncnc3[nH]nc(Br)c23)CC1` [Entry 287, 3-bromo-4-(4-{4-chloro-2′-[(2-pyrrolidin-1-ylethyl)oxy]biphenyl-3-yl}piperazin-1-yl)-1H-pyrazolo[3,4-d]pyrimidine], for which the IC50 in assay [1] (Table 1, class symbols per key) was < 100 nM; in assay [2] (Table 1, class symbols per key), < 100 nM.

`Cc1c(NCCN2CCCC2)cc(OCC(F)(CF)CF)cc1N1CCN(c2ncnc3[nH]nc(C#CCO)c23)CC1` [Entry 288, 3-[4-(4-{5-{[2,3-difluoro-2-(fluoromethyl)pro-pyl]oxy}-2-methyl-3-[(2-pyrrolidin-1-ylethyl)a-mino]phenyl}piperazin-1-yl)-1H-pyrazolo[3,4-d]pyrimidin-3-yl]prop-2-yn-1-ol]: the IC50 in assay [1] (Table 1, class symbols per key) was < 100 nM; in assay [2] (Table 1, class symbols per key) it was < 100 nM.

Regarding `Fc1ccc(-c2ccc(Cl)c(N3CCN(c4ncnc5[nH]nc(Br)c45)CC3)c2)c(OCCN2CCCC2)c1` [Entry 289, 3-bromo-4-(4-{4-chloro-4′-fluoro-2′-[(2-pyrrolidin-1-ylethyl)oxy]biphenyl-3-yl}piperazin-1-yl)-1H-pyrazolo[3,4-d]pyrimidine], the IC50 in assay [1] and in assay [2] was < 100 nM throughout.

Turning to `Cc1c(NCCN2CCCC2)cc(OCC(F)(CF)CF)cc1N1CCN(c2ncnc3[nH]nc(/C=C/C(=O)O)c23)CC1` [Entry 291, (2E)-3-[4-(4-{5-{[2,3-difluoro-2-(fluoromethyl)pro-pyl]oxy}-2-methyl-3-[(2-pyrrolidin-1-ylethyl)a-mino]phenyl}piperazin-1-yl)-1H-pyrazolo[3,4-d]pyrimidin-3-yl]prop-2-enoic acid], the 50% inhibitory concentration (IC50) in assay [1] and in assay [2] was < 100 nM each time.

As for `COC(CCC(F)(F)F)(OC)c1cc(NCCN2CCCC2)c(C)c(N2CCN(c3ncnc4[nH]nc(Br)c34)CC2)c1` [Entry 292, 3-[4-(3-bromo-1H-pyrazolo[3,4-d]pyrimidin-4-yl)piperazin-1-yl]-2-methyl-N-(2-pyrrolidin-1-ylethyl)-5-[4,4,4-trifluoro-1,1-bis(methyloxy)butyl]aniline], the IC50 in assay [1] and in assay [2] was < 100 nM throughout.

For the compound `c1ccc(N2CCN(c3ncnc4[nH]cnc34)CC2)cc1` [Entry 293, 6-(4-phenylpiperazin-1-yl)-9H-purine], the IC50 is ≥ 10000 nM in assay [1] and 1000 to 10000 nM in assay [2].

Turning to `Clc1cccc(N2CCN(c3ncnc4[nH]cnc34)CC2)c1` [Entry 294, 6-[4-(3-chlorophenyl)piperazin-1-yl]-9H-purine], the IC50 in assay [1] was ≥ 10000 nM; in assay [2] it was 100 to 1000 nM.
